Structures are written as SMILES. Active and inactive are the calls of the source. How the calls were made is not given here.

The assay deals with Trypanosoma brucei growth inhibition, luminescence. As to the kind of experiment: antitrypanosomal activity against T. brucei – luminescence (AID 1159562).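 Further: parasites grew with compound for 24 h before the luminescence read.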
As to `COc1ccc(C2CC(c3ccc(NS(C)(=O)=O)cc3)=NN2C(=O)c2cccs2)cc1OC` (configuration not stated), the IC50 (as a rule, the concentration at which inhibition is half-maximal) was 25000 nM.
With `CN(Cc1ccc(C(N)=O)cc1)C(c1ccc(F)cc1)c1cccnc1` (configuration not stated) the figure was > 40000 nM (inactive); with `Cc1c(C(C)NC(=O)Nc2cccc(Cl)c2)sc2ncnn12` (configuration not stated), > 40000 nM (inactive).
Regarding `CCN(CC)c1ccc(S(=O)(=O)N(CC)CC)c2nonc12`, the IC50 is 25000 nM.
With `Cc1nc(N2CCC(C(=O)N3CCC(O)(c4cccnc4)CC3)CC2)nc2ccc(C(C)C)cc12`, the IC50 is 32000 nM.
In the case of `Cc1nn2c(NCCCO)c3c(nc2c1-c1cccs1)CCC3`, the IC50 was 400 nM.
Take `CCOc1ccc(N(C)S(=O)(=O)c2ccc3[nH]cc(C(=O)NC4CCCC4)c(=O)c3c2)cc1`: the IC50 is 500 nM.
With `Cc1ccc(C)c(OC2CCN(C(=O)C(C)n3ccnc3)CC2)c1` (configuration not stated), the IC50 was > 40000 nM (inactive).
For the compound `CNC(=O)C1Cc2ccccc2N1C(=O)COc1cccc(OC)c1` (configuration not stated), the IC50 was 1000 nM.
With `CCN(CC)S(=O)(=O)c1ccc(OC)c(NC(=O)c2ccc([N+](=O)[O-])s2)c1`, the IC50 is 630 nM.
As to `COc1ccc(C(=O)Nc2ccc(NC(=O)CO)cc2)cc1`, the IC50 was 250 nM.
On to `N#Cc1cnc(Nc2cccc(CCN3CCOCC3)c2)nc1Nc1ccccc1C(N)=O`, for which the IC50 is 250 nM.
With `COc1ccc(CNc2cc(C3CC3)nc(-c3nccn3C)n2)cc1`, the half-maximal inhibitory concentration (IC50) was 2500 nM.
Regarding `Cc1cc(-c2cccc3ccccc23)nc2nc(N)nc(N)c12`, the IC50 is 20000 nM.
For `Clc1ccc(Sc2cnccc2N2CCOCC2)cc1`, the IC50 was > 40000 nM (inactive).
As for `Cc1nc2nc(C)c(Cc3ccc(C(C)C)cc3)c(=O)n2[nH]1`, the IC50 was > 40000 nM (inactive).
`Cc1ccc(NC(=O)c2ccc([N+](=O)[O-])s2)cc1S(=O)(=O)N1CCOCC1`: the IC50 is 790 nM.
Then `O=c1[nH]c(C=Cc2cccc(OCCOc3ccccc3)c2)nc(O)c1[N+](=O)[O-]`, with 10000 nM; and `Cn1nc(-c2ccc(NC(=O)Cc3ccccc3Cl)cc2)c2c(N)ncnc21`, with 250 nM.
Consider `Cn1nccc1-c1cc(OC(CN)c2ccccc2)cnc1-c1ccco1` (configuration not stated), for which the IC50 was 16000 nM.
On to `CCCCCNC(=O)c1c[nH]c2ccc(S(=O)(=O)N(C)c3ccc(OCC)cc3)cc2c1=O`, for which the IC50 was 250 nM.
Consider `CN(C)Cc1cccc(Nc2nccc(-c3ccc(NCCN)c(C#N)c3)n2)c1`, for which the IC50 was 200 nM.
With `CCc1cccc(CC)c1-n1c(SCC(=O)NC(=O)NCc2ccco2)nnc1-c1cccnc1` the figure was 790 nM; with `N#Cc1ccccc1S(=O)(=O)N1CCN(C(=O)CNC(=O)c2ccc3c(c2)OCO3)CC1`, > 40000 nM (inactive); with `CCC(=O)Nc1ccc(C(=O)Nc2ccccc2-c2ccccc2)cc1`, 25000 nM.
Then `N#Cc1cc(-c2ccnc(Nc3cccc(CN4CCOCC4)c3)n2)ccc1NCCN`, with 1300 nM; and `O=C(Nc1cccc(F)c1)N1CCC(Oc2cccc(-c3cccnc3)c2)CC1`, with > 40000 nM (inactive).
On to `CCOc1cc(NCCCN2CCN(C)CC2)c2ncccc2c1`, for which the IC50 is 20000 nM.
As to `CN(Cc1nc2ccccc2s1)C(=O)C=Cc1cc2ccccc2o1`, the IC50 is > 40000 nM (inactive).
With `O=C(CSc1ccc(-c2ccccn2)nn1)Nc1ccc(Cl)cc1`, the IC50 was > 40000 nM (inactive).
Consider `COc1ccc(-c2csc(NC(=O)c3ccc([N+](=O)[O-])s3)n2)cc1OC`, for which the IC50 was 630 nM.
Consider `O=C(Cn1cnc2c(-c3ccccc3)csc2c1=O)N1CCCCC1`, for which the IC50 is 1000 nM.
With `O=S(=O)(c1cccc(CSc2nnc(-c3ccc4c(c3)OCO4)o2)c1)N1CCOCC1` the figure was > 40000 nM (inactive).
`COc1ccc(Cl)cc1CC(=O)Nc1n[nH]c(-c2ccccn2)n1`: the IC50 was > 40000 nM (inactive).
`Cc1cc(NC(=O)C2CCCCC2)n(-c2nc3c(c(=O)[nH]2)CCC3)n1`: the IC50 was 160 nM.
For `CC(C)(C)c1cc(NC2CC2)nc(-c2ccccn2)n1`, the IC50 is 2500 nM.
For `CC(C)(C)C(=O)Nc1cc(C2CC2)nn1-c1nc2c(c(=O)[nH]1)CCCC2`, the IC50 is 200 nM.

For the origin of these results see PubChem BioAssay AID1159562 (GlaxoSmithKline (GSK), 2015).
